How the values were obtained:
[1] = tested on: Glo-Response ARE-luc2P HEK293 cell line; test: ARE luciferase reporter cell-based assay; conditions: Homo sapiens, HEK293, 24 h, average of results obtained;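 also: luciferase signal tracks Nrf2 activation of the ARE once compounds disrupt KEAP1-Nrf2 binding, read with One-Glo reagent, DMSO serving as low control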
[2] = target: Kelch domain of human KEAP1 (321-624 aa) (Homo sapiens (Human), UniProt Q14145); test: KEAP1 KELCH ThermoFluor binding assay; conditions: KEAP Kelch […], 1,8-ANS, pH 7.0, average of results obtained, read-out: Tf Kd;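 also: Ligand-induced melting temperature shift of E. coli-expressed KEAP1 Kelch protein, Kd estimated from concentration-response curves of ΔTm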
Kelch domain of human KEAP1 (321-624 aa), sequence (Q14145 321-624): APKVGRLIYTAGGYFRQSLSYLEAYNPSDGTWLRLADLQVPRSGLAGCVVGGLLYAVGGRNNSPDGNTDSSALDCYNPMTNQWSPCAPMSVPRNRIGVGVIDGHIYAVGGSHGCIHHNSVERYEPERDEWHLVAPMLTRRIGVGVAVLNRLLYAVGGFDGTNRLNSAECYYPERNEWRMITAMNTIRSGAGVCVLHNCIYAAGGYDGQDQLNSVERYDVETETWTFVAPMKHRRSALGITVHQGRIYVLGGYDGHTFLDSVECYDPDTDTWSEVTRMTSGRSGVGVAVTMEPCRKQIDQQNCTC

Compound | Kd [2] [nM] | EC50 [1] [nM]
CCc1nnc2c(C)c(C(CC(=O)O)c3ccc(C)c(CN4C[C@H]5CCCN5c5ccccc5S4(=O)=O)c3)ccn12 (stereo partly drawn) [Example 278, 3-(3-(((R)-5,5-Dioxido-7a,8,9,10-tetrahydrobenzo[f]pyrrolo[2,1-d][1,2,5]thiadiazepin-6(7H)-yl)methyl)-4-methylphenyl)-3-(3-ethyl-8-methyl-[1,2,4]triazolo[4,3-a]pyridin-7-yl)propanoic Acid] | < 1 | 467
CCc1nnc2c(C)c(C(CC(=O)O)c3ccc(C)c(CN4C[C@H]5CCCN5c5ncccc5S4(=O)=O)c3)ccn12 (stereo partly drawn) [Example 281, 3-(3-(((R)-5,5-Dioxido-7a,8,9,10-tetrahydropyrido[2,3-f]pyrrolo[2,1-d][1,2,5]thiadiazepin-6(7H)-yl)methyl)-4-methylphenyl)-3-(3-ethyl-8-methyl-[1,2,4]triazolo[4,3-a]pyridin-7-yl)propanoic Acid] | < 1 | 480
CCn1nnc2c(C)c(C(CC(=O)O)c3ccc(C)c(CN4C[C@H]5CCCN5c5ncccc5S4(=O)=O)n3)ccc21 (stereo partly drawn) [Example 296, 3-(6-(((R)-5,5-Dioxido-7a,8,9,10-tetrahydropyrido[2,3-f]pyrrolo[2,1-d][1,2,5]thiadiazepin-6(7H)-yl)methyl)-5-methylpyridin-2-yl)-3-(1-ethyl-4-methyl-1H-benzo[d][1,2,3]triazol-5-yl)propanoic Acid] | < 1 | 13.6
Cc1ccc(C(c2ccc3c(nnn3CC3CC3)c2C)C(C)(C)C(=O)O)nc1CN1CC2(CCOCC2)Oc2nc(OCCN3CCOCC3)ccc2S1(=O)=O (stereo not shown) [Example 327, 3-(1-(Cyclopropylmethyl)-4-methyl-1H-benzo[d][1,2,3]triazol-5-yl)-2,2-dimethyl-3-(5-methyl-6-((7′-(2-morpholinoethoxy)-1′,1′-dioxido-2,3,5,6-tetrahydrospiro[pyran-4,4′-pyrido[2,3-b][1,4,5]oxathiazepin]-2′(3′H)-yl)methyl)pyridin-2-yl)propanoic Acid] | < 1 | 6.9
Cc1ccc(C(CC(=O)O)c2ccc3c(nnn3CC3CC3)c2C)cc1CN1C[C@H]2CCCN2c2ncccc2S1(=O)=O (stereo partly drawn) [Example 400, 3-(1-(cyclopropylmethyl)-4-methyl-1H-benzo[d][1,2,3]triazol-5-yl)-3-(3-(((R)-5,5-dioxido-7a,8,9,10-tetrahydropyrido[2,3-f]pyrrolo[2,1-d][1,2,5]thiadiazepin-6(7H)-yl)methyl)-4-methylphenyl)propanoic acid] | < 1 | 4.1
Cc1ccc(C(CC(=O)O)c2ccn3c(C(F)(F)F)nnc3c2C)nc1CN1CC2(CC2)Oc2ncc(F)cc2S1(=O)=O (stereo not shown) [Example 508, 3-(6-((8′-Fluoro-1′,1′-dioxidospiro[cyclopropane-1,4′-pyrido[2,3-b][1,4,5]oxathiazepin]-2′(3′H)-yl)methyl)-5-methylpyridin-2-yl)-3-(8-methyl-3-(trifluoromethyl)-[1,2,4]triazolo[4,3-a]pyridin-7-yl)propanoic Acid] | < 1 | 92.7
Cc1ccc(C(CC(=O)O)c2ccn3c(C(F)(F)F)nnc3c2C)nc1CN1CC2CCCCN2c2ncc(Cl)cc2S1(=O)=O (stereo not shown) [Example 518, 3-(6-((3-Chloro-5,5-dioxido-7,7a,8,9,10,11-hexahydro-6H-dipyrido[2,1-d:2′,3′-f][1,2,5]thiadiazepin-6-yl)methyl)-5-methylpyridin-2-yl)-3-(8-methyl-3-(trifluoromethyl)-[1,2,4]triazolo[4,3-a]pyridin-7-yl)propanoic Acid] | < 1 | 3.48
Cc1ccc(C(CC(=O)O)c2ccn3c(C(F)F)nnc3c2C)cc1CN1CC2(CC2)Oc2ncc(Cl)cc2S1(=O)=O (stereo not shown) [Example 529, 3-(3-((8′-Chloro-1′,1′-dioxidospiro[cyclopropane-1,4′-pyrido[2,3-b][1,4,5]oxathiazepin]-2′(3′H)-yl)methyl)-4-methylphenyl)-3-(3-(difluoromethyl)-8-methyl-[1,2,4]triazolo[4,3-a]pyridin-7-yl)propanoic Acid] | < 1 | 29.1

More lines, main results first:

Kd [2] [nM] | Compound | EC50 [1] [nM]
< 1 | Cc1ccc(C(CC(=O)O)c2ccn3c(C(F)(F)F)nnc3c2C)cc1CN1C[C@H]2CCCN2c2ncccc2S1(=O)=O (stereo partly drawn) [Example 264, 3-(3-(((R)-5,5-Dioxido-7a,8,9,10-tetrahydropyrido[2,3-f]pyrrolo[2,1-d][1,2,5]thiadiazepin-6(7H)-yl)methyl)-4-methylphenyl)-3-(8-methyl-3-(trifluoromethyl)-[1,2,4]triazolo[4,3-a]pyridin-7-yl)propanoic Acid] | 18.3
< 1 | Cc1ccc(C(CC(=O)O)c2ccn3c(C(F)(F)F)nnc3c2C)cc1CN1C[C@H]2CCCN2c2ccccc2S1(=O)=O (stereo partly drawn) [Example 265, 3-(3-(((R)-5,5-Dioxido-7a,8,9,10-tetrahydrobenzo[f]pyrrolo[2,1-d][1,2,5]thiadiazepin-6(7H)-yl)methyl)-4-methylphenyl)-3-(8-methyl-3-(trifluoromethyl)-[1,2,4]triazolo[4,3-a]pyridin-7-yl)propanoic Acid] | 31.2
< 1 | Cc1ccc(C(CC(=O)O)c2ccn3c(C(F)(F)F)nnc3c2C)cc1CN1CC(C)(C)Oc2ncccc2S1(=O)=O (stereo not shown) [Example 268, 3-(3-((4,4-Dimethyl-1,1-dioxido-3,4-dihydro-2H-pyrido[2,3-b][1,4,5]oxathiazepin-2-yl)methyl)-4-methylphenyl)-3-(8-methyl-3-(trifluoromethyl)-[1,2,4]triazolo[4,3-a]pyridin-7-yl)propanoic Acid] | 516
< 1 | Cc1ccc(C(CC(=O)O)c2ccn3c(C(F)(F)F)nnc3c2C)cc1CN1CC2(COC2)Oc2ccccc2S1(=O)=O (stereo not shown) [Example 287, 3-(3-((1,1-Dioxidospiro[benzo[b][1,4,5]oxathiazepine-4,3′-oxetan]-2(3H)-yl)methyl)-4-methylphenyl)-3-(8-methyl-3-(trifluoromethyl)-[1,2,4]triazolo[4,3-a]pyridin-7-yl)propanoic Acid] | 28.1
< 1 | Cc1ccc(C(CC(=O)O)c2ccn3c(C(F)(F)F)nnc3c2C)cc1CN1CC2CCC(F)(F)CN2c2ncccc2S1(=O)=O (stereo not shown) [Example 452, 3-(3-((10,10-Difluoro-5,5-dioxido-7,7a,8,9,10,11-hexahydro-6H-dipyrido[2,1-d:2′,3′-f][1,2,5]thiadiazepin-6-yl)methyl)-4-methylphenyl)-3-(8-methyl-3-(trifluoromethyl)-[1,2,4]triazolo[4,3-a]pyridin-7-yl)propanoic Acid] | 116
< 1 | Cc1ccc(C(CC(=O)O)c2ccn3c(C(F)F)nnc3c2C)cc1CN1CC2(COC2)Oc2ccccc2S1(=O)=O (stereo not shown) [Example 466, 3-(3-(Difluoromethyl)-8-methyl-[1,2,4]triazolo[4,3-a]pyridin-7-yl)-3-(3-((1,1-dioxidospiro[benzo[b][1,4,5]oxathiazepine-4,3′-oxetan]-2(3H)-yl)methyl)-4-methylphenyl)propanoic Acid] | 124
< 1 | Cc1ccc(C(CC(=O)O)c2ccn3c(C(F)F)nnc3c2C)cc1CN1CC2(COC2)Oc2ncccc2S1(=O)=O (stereo not shown) [Example 469, 3-(3-(Difluoromethyl)-8-methyl-[1,2,4]triazolo[4,3-a]pyridin-7-yl)-3-(3-((1′,1′-dioxidospiro[oxetane-3,4′-pyrido[2,3-b][1,4,5]oxathiazepin]-2′(3′H)-yl)methyl)-4-methylphenyl)propanoic Acid] | 608
< 1 | Cc1ccc(C(CC(=O)O)c2ccn3c(C(F)F)nnc3c2C)cc1CN1CC2(CC2)Oc2ncccc2S1(=O)=O (stereo not shown) [Example 472, 3-(3-(Difluoromethyl)-8-methyl-[1,2,4]triazolo[4,3-a]pyridin-7-yl)-3-(3-((1′,1′-dioxidospiro[cyclopropane-1,4′-pyrido[2,3-b][1,4,5]oxathiazepin]-2′(3′H)-yl)methyl)-4-methylphenyl)propanoic Acid] | 245
< 1 | Cc1ccc(C(CC(=O)O)c2ccn3c(C(F)(F)F)nnc3c2C)nc1CN1CC2(COC2)Oc2ccccc2S1(=O)=O (stereo not shown) [Example 484, 3-(6-((1,1-Dioxidospiro[benzo[b][1,4,5]oxathiazepine-4,3′-oxetan]-2(3H)-yl)methyl)-5-methylpyridin-2-yl)-3-(8-methyl-3-(trifluoromethyl)-[1,2,4]triazolo[4,3-a]pyridin-7-yl)propanoic Acid] | 226
< 1 | Cc1ccc(C(CC(=O)O)c2ccn3c(C(F)(F)F)nnc3c2C)nc1CN1CC2(COC2)Oc2ncccc2S1(=O)=O (stereo not shown) [Example 493, 3-(6-((1′,1′-Dioxidospiro[oxetane-3,4′-pyrido[2,3-b][1,4,5]oxathiazepin]-2′(3′H)-yl)methyl)-5-methylpyridin-2-yl)-3-(8-methyl-3-(trifluoromethyl)-[1,2,4]triazolo[4,3-a]pyridin-7-yl)propanoic Acid] | 1230
< 1 | Cc1ccc(C(CC(=O)O)c2ccn3c(C(F)F)nnc3c2C)cc1CN1CC2(CCOCC2)Oc2ccc(F)cc2S1(=O)=O (stereo not shown) [Example 523, 3-(3-(Difluoromethyl)-8-methyl-[1,2,4]triazolo[4,3-a]pyridin-7-yl)-3-(3-((8-fluoro-1,1-dioxido-2′,3′,5′,6′-tetrahydrospiro[benzo[b][1,4,5]oxathiazepine-4,4′-pyran]-2(3H)-yl)methyl)-4-methylphenyl)propanoic Acid] | 23.9
< 1 | Cc1ccc(C(CC(=O)O)c2ccn3c(C(F)F)nnc3c2C)cc1CN1CC2(CC2)Oc2ncc(F)cc2S1(=O)=O (stereo not shown) [Example 526, 3-(3-(Difluoromethyl)-8-methyl-[1,2,4]triazolo[4,3-a]pyridin-7-yl)-3-(3-((8′-fluoro-1′,1′-dioxidospiro[cyclopropane-1,4′-pyrido[2,3-b][1,4,5]oxathiazepin]-2′(3′H)-yl)methyl)-4-methylphenyl)propanoic Acid] | 60.1

— patent publication US10947252B2, “Inhibitors of KEAP1-Nrf2 protein-protein interaction” (Janssen Pharmaceutica NV, priority 2018, dated 2021)
